In patent publication US20040266885A1, “Wood preservative compositions” (priority 2001, published 2004):
“And” between values parts separate entries of the source, which are not always exact repeats. Equal entries are not always repeated. “Also recorded” adds a separate entry of the source. Where two headings read alike, the source gives them in different places.

Tested on: Coptotermes formosanus
Details: for Surface Activity (termites on the surface of the soil) / Tunneling Activity / Visible Mortality / repellent effect on termites (surface activity data) / termite mortality by the end of the incubation period / toxic value, lower (concentration at which the wood is no longer sufficiently protected) / toxic value, upper (lowest concentration which protects the wood) / Mean Rating (termite attack) / Termite Attack Rating: ethanol carrier; for reduction in termite attack: concentrated solutions, followed by leaching; for termite mortality by the end of the incubation period: higher concentrations; for toxic value, lower (concentration at which the wood is no longer sufficiently protected) / toxic value, upper (lowest concentration which protects the wood): mean loading, leached; for toxic value, lower (concentration at which the wood is no longer sufficiently protected): solution concentration 5%; for toxic value, upper (lowest concentration which protects the wood): solution concentration 7%; for Mean Rating (termite attack): mean of 4 specimens; for Mean Rating (termite attack) / Termite Attack Rating: 4 weeks sand culture; for Termite Attack Rating: single specimen
Text: A laboratory test was undertaken to determine the toxic values of novel actives against termites. The active materials used were TBBA, TBBE [4,4′-ethylidenebis(2,6-dibromophenol)] [CAS RN=12639-25-3] (Sample Number 1392-82-03); TBBZ [4,4′-cyclohexylidene(2,6-dibromophenol)] [CAS RN=53350-96-2] (Sample Number 1392-72-03) and TBA, 2,2′,6-tribromo-4,4′-isopropylidenediphenol, CAS 6386-73-8 (Sample Number 1392-75-03).
The test was undertaken largely according to the strictures laid down in ASTM 3345-74 (the American standard laboratory test to assess the termite resistant properties of wood to wood destroying termites). The test method allows for the exposure of treated buried wood blocks to termites (Reticulitermes or Coptotermes spp.) over a period of 4 weeks. Efficacy of the product is determined by the extent of termite damage to the treated timber specimens through a scoring system. The test was slightly modified from the standard ASTM test by reducing the number of replicate wood specimens from 5 to 4.
Score 1: Attempted attack
The toxic values of the preservative product (in kg/m^3 of wood) fall between two values as follows:
1) The lowest concentration which protects the wood (i.e. the concentration at which none of the test specimens show a degree of attack greater than 1).
The termites employed were Coptotermes formosanus.
All wood bock specimens were of Southern Yellow Pine sapwood (Pinus spp.) with dimensions of 25.4×25.4×6.4 mm in accordance with ASTM D3345-74. All blocks were vacuum impregnated with the relevant solutions in accordance with ASTM D3345-74. Distribution of blocks in the test was as follows:
The test specimens were conditioned and subjected to a leaching schedule (after vacuum impregnation) as stipulated in ASTM D1413-76 (as recommended in ASTM D3345-74). All test specimens were then air dried for two weeks to constant weight.
The specimens were each positioned at the base of a 500 ml polyethylene culture jar (numbered according to each test specimen) and covered with 200 g of sand (pre-washed, sterilised and air conditioned in the laboratory) to which was added 25 g of de-ionised water. A further two containers containing watered sand but no timber were also prepared. All the jars were sealed (lids pre-pierced and covered with stainless steel mesh for aeration).
Two days after specimen placement, 200 termites were added to each culture jar (90% workers and 10% soldiers) and the jars re-sealed. The jars were incubated at a mean temperature and relative humidity of 27.5° C. and 75-90% for 4 weeks. The containers were provided with an artificial lighting regime of 10 hours light and 14 hours darkness.
After 1 week and 4 weeks each container was examined to determine termite mortality and normal tunneling behaviour patterns as follows:
Is there tunneling present: YES/NO
Are there any termites on the surface of the soil: YES/NO (if yes how many, i.e. 1-25% of pop, 26-50% of pop, 51-100% of pop.)
Are any dead termites visible: YES/NO (if yes how many, 1-33%, 34-66%, 67-100%)
After 4 weeks the test specimens were removed and cleaned of debris. Each block was examined and visually rated for termite damage using the scoring system detailed above.
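Wherever Termite Attack Rating is given: score 0 no attack 2 slight 3 average 4 strong attack.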

CC(C)(c1ccc(O)c(Br)c1)c1cc(Br)c(O)c(Br)c1 [TBA, 2,2′,6-tribromo-4,4′-isopropylidenediphenol]
Surface Activity (termites on the surface of the soil) (1 week, solution conc. 1%): No/No | Tunneling Activity (1 week, solution conc. 1%): Yes/Yes | Visible Mortality (1 week, solution conc. 1%): No/No | Surface Activity (termites on the surface of the soil) (1 week, solution conc. 3%): No/No | Tunneling Activity (1 week, solution conc. 3%): Yes/Yes | Visible Mortality (1 week, solution conc. 3%): No | Surface Activity (termites on the surface of the soil) (1 week, solution conc. 5%): No/No | Tunneling Activity (1 week, solution conc. 5%): Yes/Yes | Visible Mortality (1 week, solution conc. 5%): No | Surface Activity (termites on the surface of the soil) (1 week, solution conc. 7%): No/No | Tunneling Activity (1 week, solution conc. 7%): Yes/Yes | Visible Mortality (1 week, solution conc. 7%): No | Surface Activity (termites on the surface of the soil) (1 week, solution conc. 10%): No/No | Tunneling Activity (1 week, solution conc. 10%): Yes/Yes | Visible Mortality (1 week, solution conc. 10%): No | Surface Activity (termites on the surface of the soil) (4 weeks, solution conc. 1%): No/No | Tunneling Activity (4 weeks, solution conc. 1%): Yes/Yes | Visible Mortality (4 weeks, solution conc. 1%): No/No | Surface Activity (termites on the surface of the soil) (4 weeks, solution conc. 3%): No/No | Tunneling Activity (4 weeks, solution conc. 3%): Yes/Yes | Visible Mortality (4 weeks, solution conc. 3%): 1-33 % (of pop.) | Surface Activity (termites on the surface of the soil) (4 weeks, solution conc. 5%): No/No | Tunneling Activity (4 weeks, solution conc. 5%): Yes/Yes | Visible Mortality (4 weeks, solution conc. 5%): 34-66 % (of pop.) | Surface Activity (termites on the surface of the soil) (4 weeks, solution conc. 7%): No/No | Tunneling Activity (4 weeks, solution conc. 7%): Yes/Yes | Visible Mortality (4 weeks, solution conc. 7%): 34-66 % (of pop.) | Surface Activity (termites on the surface of the soil) (4 weeks, solution conc. 10%): No/No | Tunneling Activity (4 weeks, solution conc. 10%): Yes/Yes | Visible Mortality (4 weeks, solution conc. 10%): 34-66 % (of pop.) | reduction in termite attack: a significant reduction in termite attack | repellent effect on termites (surface activity data): no repellent effect | termite mortality by the end of the incubation period: 34-66% | toxic value, lower (concentration at which the wood is no longer sufficiently protected) (4 weeks): 30.17 kg/m^3 | toxic value, upper (lowest concentration which protects the wood) (4 weeks): 41.22 kg/m^3 | Mean Rating (termite attack) (solution conc. 1%): 3.00 | Termite Attack Rating (solution conc. 1%): 3 and 2 and 4 | Mean Rating (termite attack) (solution conc. 3%): 1.75 | Termite Attack Rating (solution conc. 3%): 2 and 1 | Mean Rating (termite attack) (solution conc. 5%): 1.75 | Termite Attack Rating (solution conc. 5%): 2 and 1 | Mean Rating (termite attack) (solution conc. 7%): 1.00 | Termite Attack Rating (solution conc. 7%): 1 | Mean Rating (termite attack) (solution conc. 10%): 1.00 | Termite Attack Rating (solution conc. 10%): 1

CC(c1cc(Br)c(O)c(Br)c1)c1cc(Br)c(O)c(Br)c1 [TBBE, 4,4′-ethylidenebis(2,6-dibromophenol)]
Surface Activity (termites on the surface of the soil) (1 week, solution conc. 1%): No/No | Tunneling Activity (1 week, solution conc. 1%): Yes/Yes | Visible Mortality (1 week, solution conc. 1%): No/No | Surface Activity (termites on the surface of the soil) (1 week, solution conc. 3%): No/No | Tunneling Activity (1 week, solution conc. 3%): Yes/Yes | Visible Mortality (1 week, solution conc. 3%): No | Surface Activity (termites on the surface of the soil) (1 week, solution conc. 5%): No/No | Tunneling Activity (1 week, solution conc. 5%): Yes/Yes | Visible Mortality (1 week, solution conc. 5%): No | Surface Activity (termites on the surface of the soil) (1 week, solution conc. 7%): 1-25%/1-25% (of % (of pop.) | Tunneling Activity (1 week, solution conc. 7%): Yes/Yes | Surface Activity (termites on the surface of the soil) (1 week, solution conc. 10%): 1-25%/1-25% (of % (of pop.) | Tunneling Activity (1 week, solution conc. 10%): Yes/Yes | Visible Mortality (1 week, solution conc. 10%): No | Surface Activity (termites on the surface of the soil) (4 weeks, solution conc. 1%): No/No | Tunneling Activity (4 weeks, solution conc. 1%): Yes/Yes | Visible Mortality (4 weeks, solution conc. 1%): No/No | Surface Activity (termites on the surface of the soil) (4 weeks, solution conc. 3%): No/No | Tunneling Activity (4 weeks, solution conc. 3%): Yes/Yes | Visible Mortality (4 weeks, solution conc. 3%): 1-33 % (of pop.) | Surface Activity (termites on the surface of the soil) (4 weeks, solution conc. 5%): No/No | Tunneling Activity (4 weeks, solution conc. 5%): Yes/Yes | Surface Activity (termites on the surface of the soil) (4 weeks, solution conc. 7%): 1-25%/1-25% (of % (of pop.) | Tunneling Activity (4 weeks, solution conc. 7%): Yes/Yes | Visible Mortality (4 weeks, solution conc. 7%): 67-100 % (of pop.) | Surface Activity (termites on the surface of the soil) (4 weeks, solution conc. 10%): 1-25%/1-25% (of % (of pop.) | Tunneling Activity (4 weeks, solution conc. 10%): Yes/Yes | Visible Mortality (4 weeks, solution conc. 10%): 67-100 % (of pop.) | reduction in termite attack: a significant reduction in termite attack | repellent effect on termites (surface activity data): a degree of termite repellency; also recorded: a repellent effect at certain stages of the incubation period; also recorded: a repellent effect early in the incubation period at higher concentrations | termite mortality by the end of the incubation period: significant termite mortality | toxic value, lower (concentration at which the wood is no longer sufficiently protected) (4 weeks): 28.53 kg/m^3 | toxic value, upper (lowest concentration which protects the wood) (4 weeks): 35.93 kg/m^3 | Mean Rating (termite attack) (solution conc. 1%): 3.00 | Termite Attack Rating (solution conc. 1%): 3 | Mean Rating (termite attack) (solution conc. 3%): 2.00 | Termite Attack Rating (solution conc. 3%): 2 and 3 and 1 | Mean Rating (termite attack) (solution conc. 5%): 1.50 | Termite Attack Rating (solution conc. 5%): 2 and 1 | Mean Rating (termite attack) (solution conc. 7%): 1.00 | Termite Attack Rating (solution conc. 7%): 1 | Mean Rating (termite attack) (solution conc. 10%): 1.25 | Termite Attack Rating (solution conc. 10%): 1 and 2

Oc1c(Br)cc(C2(c3cc(Br)c(O)c(Br)c3)CCCCC2)cc1Br [TBBZ, 4,4′-cyclohexylidene(2,6-dibromophenol)]
Surface Activity (termites on the surface of the soil) (1 week, solution conc. 1%): No/No | Tunneling Activity (1 week, solution conc. 1%): Yes/Yes | Visible Mortality (1 week, solution conc. 1%): No/No | Surface Activity (termites on the surface of the soil) (1 week, solution conc. 3%): No/No | Tunneling Activity (1 week, solution conc. 3%): Yes/Yes | Visible Mortality (1 week, solution conc. 3%): No | Surface Activity (termites on the surface of the soil) (1 week, solution conc. 5%): No/No | Tunneling Activity (1 week, solution conc. 5%): Yes/Yes | Visible Mortality (1 week, solution conc. 5%): No | Surface Activity (termites on the surface of the soil) (1 week, solution conc. 7%): 1-25 % (of pop.) | Tunneling Activity (1 week, solution conc. 7%): Yes/Yes | Visible Mortality (1 week, solution conc. 7%): No | Surface Activity (termites on the surface of the soil) (1 week, solution conc. 10%): 1-25 % (of pop.) | Tunneling Activity (1 week, solution conc. 10%): Yes/Yes | Visible Mortality (1 week, solution conc. 10%): No | Surface Activity (termites on the surface of the soil) (4 weeks, solution conc. 1%): No/No | Tunneling Activity (4 weeks, solution conc. 1%): Yes/Yes | Visible Mortality (4 weeks, solution conc. 1%): No/No | Surface Activity (termites on the surface of the soil) (4 weeks, solution conc. 3%): No/No | Tunneling Activity (4 weeks, solution conc. 3%): Yes/Yes | Visible Mortality (4 weeks, solution conc. 3%): 1-33 % (of pop.) | Surface Activity (termites on the surface of the soil) (4 weeks, solution conc. 5%): No/No | Tunneling Activity (4 weeks, solution conc. 5%): Yes/Yes | Visible Mortality (4 weeks, solution conc. 5%): 34-66 % (of pop.) | Surface Activity (termites on the surface of the soil) (4 weeks, solution conc. 7%): No | Tunneling Activity (4 weeks, solution conc. 7%): Yes/Yes | Visible Mortality (4 weeks, solution conc. 7%): 34-66 % (of pop.) | Surface Activity (termites on the surface of the soil) (4 weeks, solution conc. 10%): No | Tunneling Activity (4 weeks, solution conc. 10%): Yes/Yes | Visible Mortality (4 weeks, solution conc. 10%): 67-100 % (of pop.) | reduction in termite attack: a significant reduction in termite attack; also recorded: the higher concentrations do reduce termite attack | repellent effect on termites (surface activity data): a degree of termite repellency | Mean Rating (termite attack) (solution conc. 1%): 2.50 | Termite Attack Rating (solution conc. 1%): 4 and 2 | Mean Rating (termite attack) (solution conc. 3%): 1.50 | Termite Attack Rating (solution conc. 3%): 2 and 1 | Mean Rating (termite attack) (solution conc. 5%): 1.25 | Termite Attack Rating (solution conc. 5%): 1 and 2 | Mean Rating (termite attack) (solution conc. 7%): 1.25 | Termite Attack Rating (solution conc. 7%): 1 and 2 | Mean Rating (termite attack) (solution conc. 10%): 1.25 | Termite Attack Rating (solution conc. 10%): 1 and 2
